{"source": "patent US20260217701A1", "about": "“SELECTIVE BET INHIBITORS AND USES THEREOF” (Tay Therapeutics Limited, priority 2022, published 2026)", "experiment": "Bleomycin IPF model: body weight and mortality", "format": "in vivo, C57BI/6J mice", "parameters": "Mean Body Weight Change: unit not given here", "procedure": "Male C57BI/6J mice, aged 12 weeks with an approximate weight of 25-30 g were obtained from Jackson Laboratories (Bar Harbor, ME). Animals were acclimated for two weeks prior to study initiation, and were randomized into the experimental groups outlined in Table 32.\nIntratracheal (IT) administration of Bleo or PBS control was conducted at the start of the study (Day 0). […] Animals were weighed on Day 0, and indexed boluses of PBS control (Group 1) or Bleo (Groups 2-6) were delivered by IT administration.\nFollowing administration of Bleo, animals (n=10/group) were included in the study if they met the following guidelines on Day 7: (1) a predictable 5% loss in body weight, and (2) the presence of fibrotic pulmonary lesions, detected by micro-CT imaging. 10 animals from Group 1 additionally proceeded as controls. Animals that continued in the study on Day 7 received an oral gavage (OG) administration of PBS, Compound A (1 mg/kg, 3 mg/kg, 10 mg/kg), or Pirfenidone (300 mg/kg), as outlined in Table 31 in 25 μL boluses every other day (QOD), starting on Day 7. Compound A was formulated in 5% (v/v) DMSO/15% (v/v) PEG 400/80% (v/v) E-TPGS in purified water. […]"}
{"smiles": "Cn1cc(-c2ccccc2)c(-c2cn(C)c(=O)c3[nH]c(-c4cnn(C(F)(F)F)c4)cc23)cc1=O", "note": "[Compound A, 6-methyl-4-(1-methyl-2-oxo-5-phenyl-1,2-dihydropyridin-4-yl)-2-(1-(trifluoromethyl)-1H-pyrazol-4-yl)-1,6-dihydro-7H-pyrrolo[2,3-c]pyridin-7-one]", "values": [{"measurement": "Mean Body Weight Change", "setting": "Bleo + Compound A (1 mg/kg) OG QOD from D7, Day 1", "result": 1.269}, {"measurement": "Mean Body Weight Change", "setting": "Bleo + Compound A (1 mg/kg) OG QOD from D7, Day 2", "result": "−0.061"}, {"measurement": "Mean Body Weight Change", "setting": "Bleo + Compound A (1 mg/kg) OG QOD from D7, Day 3", "result": "−0.538"}, {"measurement": "Mean Body Weight Change", "setting": "Bleo + Compound A (1 mg/kg) OG QOD from D7, Day 4", "result": "−4.382"}, {"measurement": "Mean Body Weight Change", "setting": "Bleo + Compound A (1 mg/kg) OG QOD from D7, Day 5", "result": "−8.986"}, {"measurement": "Mean Body Weight Change", "setting": "Bleo + Compound A (1 mg/kg) OG QOD from D7, Day 6", "result": "−11.204"}, {"measurement": "Mean Body Weight Change", "setting": "Bleo + Compound A (1 mg/kg) OG QOD from D7, Day 7", "result": "−14.465"}, {"measurement": "Mean Body Weight Change", "setting": "Bleo + Compound A (1 mg/kg) OG QOD from D7, Day 8", "result": "−18.012"}, {"measurement": "Mean Body Weight Change", "setting": "Bleo + Compound A (1 mg/kg) OG QOD from D7, Day 9", "result": "−17.310"}, {"measurement": "Mean Body Weight Change", "setting": "Bleo + Compound A (1 mg/kg) OG QOD from D7, Day 10", "result": "−17.947"}, {"measurement": "Mean Body Weight Change", "setting": "Bleo + Compound A (1 mg/kg) OG QOD from D7, Day 11", "result": "−16.922"}, {"measurement": "Mean Body Weight Change", "setting": "Bleo + Compound A (1 mg/kg) OG QOD from D7, Day 12", "result": "−17.204"}, {"measurement": "Mean Body Weight Change", "setting": "Bleo + Compound A (1 mg/kg) OG QOD from D7, Day 13", "result": "−16.710"}, {"measurement": "Mean Body Weight Change", "setting": "Bleo + Compound A (1 mg/kg) OG QOD from D7, Day 14", "result": "−16.996"}, {"measurement": "Mean Body Weight Change", "setting": "Bleo + Compound A (1 mg/kg) OG QOD from D7, Day 15", "result": "−16.840"}, {"measurement": "Mean Body Weight Change", "setting": "Bleo + Compound A (1 mg/kg) OG QOD from D7, Day 16", "result": 16.698}, {"measurement": "Mean Body Weight Change", "setting": "Bleo + Compound A (1 mg/kg) OG QOD from D7, Day 17", "result": "−16.509"}, {"measurement": "Mean Body Weight Change", "setting": "Bleo + Compound A (1 mg/kg) OG QOD from D7, Day 18", "result": "−16.113"}, {"measurement": "Mean Body Weight Change", "setting": "Bleo + Compound A (1 mg/kg) OG QOD from D7, Day 19", "result": "−16.612"}, {"measurement": "Mean Body Weight Change", "setting": "Bleo + Compound A (1 mg/kg) OG QOD from D7, Day 20", "result": "−16.506"}, {"measurement": "Mean Body Weight Change", "setting": "Bleo + Compound A (1 mg/kg) OG QOD from D7, Day 21", "result": "−16.978"}, {"measurement": "Mean Body Weight Change", "setting": "Bleo + Compound A (3 mg/kg) OG QOD from D7, Day 1", "result": 0.712}, {"measurement": "Mean Body Weight Change", "setting": "Bleo + Compound A (3 mg/kg) OG QOD from D7, Day 2", "result": "−0.088"}, {"measurement": "Mean Body Weight Change", "setting": "Bleo + Compound A (3 mg/kg) OG QOD from D7, Day 3", "result": "−1.018"}, {"measurement": "Mean Body Weight Change", "setting": "Bleo + Compound A (3 mg/kg) OG QOD from D7, Day 4", "result": "−5.198"}, {"measurement": "Mean Body Weight Change", "setting": "Bleo + Compound A (3 mg/kg) OG QOD from D7, Day 5", "result": "−8.915"}, {"measurement": "Mean Body Weight Change", "setting": "Bleo + Compound A (3 mg/kg) OG QOD from D7, Day 6", "result": "−11.426"}, {"measurement": "Mean Body Weight Change", "setting": "Bleo + Compound A (3 mg/kg) OG QOD from D7, Day 7", "result": "−14.024"}, {"measurement": "Mean Body Weight Change", "setting": "Bleo + Compound A (3 mg/kg) OG QOD from D7, Day 8", "result": "−18.310"}, {"measurement": "Mean Body Weight Change", "setting": "Bleo + Compound A (3 mg/kg) OG QOD from D7, Day 9", "result": 18.416}, {"measurement": "Mean Body Weight Change", "setting": "Bleo + Compound A (3 mg/kg) OG QOD from D7, Day 10", "result": "−19.029"}, {"measurement": "Mean Body Weight Change", "setting": "Bleo + Compound A (3 mg/kg) OG QOD from D7, Day 11", "result": "−17.826"}, {"measurement": "Mean Body Weight Change", "setting": "Bleo + Compound A (3 mg/kg) OG QOD from D7, Day 12", "result": "−18.384"}, {"measurement": "Mean Body Weight Change", "setting": "Bleo + Compound A (3 mg/kg) OG QOD from D7, Day 13", "result": "−18.055"}, {"measurement": "Mean Body Weight Change", "setting": "Bleo + Compound A (3 mg/kg) OG QOD from D7, Day 14", "result": "−18.840"}, {"measurement": "Mean Body Weight Change", "setting": "Bleo + Compound A (3 mg/kg) OG QOD from D7, Day 15", "result": "−19.765"}, {"measurement": "Mean Body Weight Change", "setting": "Bleo + Compound A (3 mg/kg) OG QOD from D7, Day 16", "result": "−19.797"}, {"measurement": "Mean Body Weight Change", "setting": "Bleo + Compound A (3 mg/kg) OG QOD from D7, Day 17", "result": "−20.566"}, {"measurement": "Mean Body Weight Change", "setting": "Bleo + Compound A (3 mg/kg) OG QOD from D7, Day 18", "result": "−21.350"}, {"measurement": "Mean Body Weight Change", "setting": "Bleo + Compound A (3 mg/kg) OG QOD from D7, Day 19", "result": "−20.021"}, {"measurement": "Mean Body Weight Change", "setting": "Bleo + Compound A (3 mg/kg) OG QOD from D7, Day 20", "result": "−22.069"}, {"measurement": "Mean Body Weight Change", "setting": "Bleo + Compound A (3 mg/kg) OG QOD from D7, Day 21", "result": "−22.585"}, {"measurement": "Mean Body Weight Change", "setting": "Bleo + Compound A (10 mg/kg) OG QOD from D7, Day 1", "result": 1.987}, {"measurement": "Mean Body Weight Change", "setting": "Bleo + Compound A (10 mg/kg) OG QOD from D7, Day 2", "result": 2.172}, {"measurement": "Mean Body Weight Change", "setting": "Bleo + Compound A (10 mg/kg) OG QOD from D7, Day 3", "result": 0.974}, {"measurement": "Mean Body Weight Change", "setting": "Bleo + Compound A (10 mg/kg) OG QOD from D7, Day 4", "result": 4.101}, {"measurement": "Mean Body Weight Change", "setting": "Bleo + Compound A (10 mg/kg) OG QOD from D7, Day 5", "result": "−8.131"}, {"measurement": "Mean Body Weight Change", "setting": "Bleo + Compound A (10 mg/kg) OG QOD from D7, Day 6", "result": "−9.560"}, {"measurement": "Mean Body Weight Change", "setting": "Bleo + Compound A (10 mg/kg) OG QOD from D7, Day 7", "result": "−11.173"}, {"measurement": "Mean Body Weight Change", "setting": "Bleo + Compound A (10 mg/kg) OG QOD from D7, Day 8", "result": "−14.286"}, {"measurement": "Mean Body Weight Change", "setting": "Bleo + Compound A (10 mg/kg) OG QOD from D7, Day 9", "result": "−15.876"}, {"measurement": "Mean Body Weight Change", "setting": "Bleo + Compound A (10 mg/kg) OG QOD from D7, Day 10", "result": "−16.428"}, {"measurement": "Mean Body Weight Change", "setting": "Bleo + Compound A (10 mg/kg) OG QOD from D7, Day 11", "result": "−14.809"}, {"measurement": "Mean Body Weight Change", "setting": "Bleo + Compound A (10 mg/kg) OG QOD from D7, Day 12", "result": "−13.953"}, {"measurement": "Mean Body Weight Change", "setting": "Bleo + Compound A (10 mg/kg) OG QOD from D7, Day 13", "result": "−15.394"}, {"measurement": "Mean Body Weight Change", "setting": "Bleo + Compound A (10 mg/kg) OG QOD from D7, Day 14", "result": "−13.610"}, {"measurement": "Mean Body Weight Change", "setting": "Bleo + Compound A (10 mg/kg) OG QOD from D7, Day 15", "result": "−15.280"}, {"measurement": "Mean Body Weight Change", "setting": "Bleo + Compound A (10 mg/kg) OG QOD from D7, Day 16", "result": "−13.218"}, {"measurement": "Mean Body Weight Change", "setting": "Bleo + Compound A (10 mg/kg) OG QOD from D7, Day 17", "result": "−13.174"}, {"measurement": "Mean Body Weight Change", "setting": "Bleo + Compound A (10 mg/kg) OG QOD from D7, Day 18", "result": "−14.218"}, {"measurement": "Mean Body Weight Change", "setting": "Bleo + Compound A (10 mg/kg) OG QOD from D7, Day 19", "result": "−15.010"}, {"measurement": "Mean Body Weight Change", "setting": "Bleo + Compound A (10 mg/kg) OG QOD from D7, Day 20", "result": "−16.208"}, {"measurement": "Mean Body Weight Change", "setting": "Bleo + Compound A (10 mg/kg) OG QOD from D7, Day 21", "result": "−16.139"}, {"measurement": "Ending body weight at Day 21", "setting": "Bleo mice, 10 mg/kg", "result": "higher ending weight at Day 21"}, {"measurement": "Body weight course after start of administration", "setting": "Bleo mice, all doses tested (1, 3, 10 mg/kg)", "result": "weight loss was arrested"}, {"measurement": "Body weight compared with Bleo+Saline treated animals", "setting": "Compound A (all doses tested), Pirfenidone (300 mg/kg)", "result": "No significant difference"}, {"measurement": "Deaths / mortality", "setting": "OG administration, IPF study", "result": "no deaths or significant changes in mortality"}]}
